Tested on: cos-7 cells
Assay: DNA transfection: luciferase expression relative to Lipofectamine 2000
Format: cell-based
Details: 300 ng Luciferase DNA per well, luciferase assay after 48 hours
Description: 14,000 cos-7 cells (ATCC, Manassas, Va.) were seeded into each well of a solid white or clear 96 well plate (Corning-Costar, Kennebunk, Me.) and allowed to attached overnight in growth medium, composed of: 500 ml phenol red minus DMEM, 50 ml heat inactivated FBS, 5 ml penicillin/streptomycin (Invitrogen, Carlsbad, Calif.).
A small liquot of lipid was tranferred to an Eppendorf tube. Based on the mass of the lipid in the tube, sterile 25 mM sodium acetate buffer was added to each tube to yield a concentration of 60 mg/ml. The resulting mixture was vortexed for approximately 20 minutes until the lipid was fully dissolved. DNA was prepared based on 300 ng DNA per well of a 96-well plate. 291 μg of Lc DNA was dissolved in 9210 μl of 25 mM sodium acetate buffer. Aliquots of 30 μl of DNA solution were added to each well expect for the last column which was reserved for the Lipo2000 standard. For the last column of the plate, 61 μg of DNA was added to 1940 μl Optimem. 150 μl of media/Optimem was added to each well of plates. 50 μl of lipid solution was aliquoted into wells of robot plate. The following amounts were aliquoted to obtain the correct ratios of DNA to lipid:
In quadruplicate, 30 μl of lipid was aliquoted onto DNA in four rows for each ratio. For the Lipo2000 control (2.5 w/w ratio to DNA), 152.5 μg of Lipo sample was aliquoted into 1847.5 μl of Optimem. 30 μl of this solution was aliquoted onto DNA in the Optimem in the last columns of each plate. The plates were incubated for 15-20 minutes, and then 36.5 μl of lipid+DNA complexes was transferred into 150 μl of media/Optimem, then add to cells. The media was aspirated off the cells, and 105 μl of the lipid/DNA/media/Optimem solution was added to the cells. The luciferase assay was performed after 48 hours.
Luminescence was analyzed using bright-glo assay kits (Promega). Briefly, 100 μl of bright-glo solution was added to each well of the microtiter plate containing media and cells. Luminescence was measured using a Mithras Luminometer (Berthold, Oak Ridge, Tenn.). In some cases, a neutral density filter (Chroma, Brattleboro, Vt.) was used to prevent saturation of the luminometer. A standard curve for Luciferase was generated by titration of Luciferase enzyme (Promega) into growth media in white microtiter plates. Luciferase in ng per well are calculated for each of the lipids at 2.5 w/w, 5 w/w, 10 w/w, 15 w/w, 20 w/w, and 25 w/w lipid to DNA based on the standard curve.
The table below summarizes the data as a % of the luciferase activity obtained from the use of Lipofectamine 2000. The table indicates the best lipids for transfection.

| Compound | Luciferase expression as a percentage of that achieved using Lipofectamine 2000 (lipid/DNA 2.5 w/w) [%] | Luciferase expression as a percentage of that achieved using Lipofectamine 2000 (lipid/DNA 5 w/w) [%] | Luciferase expression as a percentage of that achieved using Lipofectamine 2000 (lipid/DNA 10 w/w) [%] | Luciferase expression as a percentage of that achieved using Lipofectamine 2000 (lipid/DNA 15 w/w) [%] | Luciferase expression as a percentage of that achieved using Lipofectamine 2000 (lipid/DNA 20 w/w) [%] | Luciferase expression as a percentage of that achieved using Lipofectamine 2000 (lipid/DNA 25 w/w) [%] |
| --- | --- | --- | --- | --- | --- | --- |
| CCCCCCCCCCOC(=O)CCN(CCC(=O)OCCCCCCCCCC)CC(O)CO (centres unmarked) [LB24] | 0.1 | 0.2 | 0.4 | 0.1 | 0.1 | 0.1 |
| CCCCCCCCCCOC(=O)CC[N+](C)(CCC(=O)OCCCCCCCCCC)CC1COC(C)(C)O1.[I-] (centres unmarked) [QB7] | 0.0 | 0.0 | 0.0 | 0.0 | 0.0 | 0.0 |
| CCCCCCCCCCOC(=O)CCN(CCCCCO)CCC(=O)OCCCCCCCCCC [LB32] | 0.1 | 0.1 | 0.1 | 0.1 | 0.1 | 0.1 |
| CCCCCCCCCCOC(=O)CCN(CCC(=O)OCCCCCCCCCC)C(C)CN(C)C (centres unmarked) [LB79] | 0.1 | 0.1 | 0.1 | 0.1 | 0.1 | 0.1 |
| CCCCCCCCCCCCCCOC(=O)CCN(CCN(CCC(=O)OCCCCCCCCCCCCCC)C(C)C)C(C)C [LF62] | 0.1 | 0.1 | 0.2 | 0.1 | 0.4 | 0.2 |
| CCCCCCCCCCCCCCCOC(=O)CCN(CCCN1CCOCC1)CCC(=O)OCCCCCCCCCCCCCCC [LG91] | 0.2 | 0.2 | 0.1 | 0.2 | 0.1 | 0.1 |
| CCCCCCCCCCOC(=O)CCN(CCN(CCC(=O)OCCCCCCCCCC)C(C)C)C(C)C [LB62] | 0.1 | 0.1 | 0.1 | 0.1 | 0.1 | 0.1 |
| CCCCCCCCCCCCCCOC(=O)CCN(CCC(=O)OCCCCCCCCCCCCCC)CC(C)(C)CO [LF33] | 0.1 | 0.1 | 0.1 | 0.1 | 0.1 | 0.1 |
| CCCCCCCCCCCCCCOC(=O)CCN(CC)CCN(CC)CCC(=O)OCCCCCCCCCCCCCC [LF61] | 0.1 | 0.1 | 0.1 | 0.1 | 0.1 | 0.1 |
| CCCCCCCCCCCCCCOC(=O)CCN(CCCN(CC)CC)CCC(=O)OCCCCCCCCCCCCCC [LF81] | 0.5 | 1.6 | 1.5 | 4.9 | 4.6 | 4.0 |
| CCCCCCCCCCCCCCCOC(=O)CCN(CCC(=O)OCCCCCCCCCCCCCCC)CCc1ccc(OC)c(OC)c1 [LG17] | 0.4 | 0.3 | 0.1 | 0.0 | 0.3 | 0.3 |
| CCCCCCCCCCCCCCCCCCOC(=O)CCN(CCCCO)CCC(=O)OCCCCCCCCCCCCCCCCCC [LH28] | – | – | 0.2 | 0.2 | – | – |
| CCCCCCCCCCCCCCOC(=O)CCN(CCCN1CCOCC1)CCC(=O)OCCCCCCCCCCCCCC [LF91] | 0.5 | 0.5 | 0.8 | 1.4 | 1.3 | 1.6 |
| CCCCCCCCCCCCOC(=O)CCN(CCC(=O)OCCCCCCCCCCCC)CCc1c[nH]cn1 [LD94] | 1.5 | 5.9 | 2.0 | 8.5 | 9.2 | 7.3 |
| CCCCCCCCCCCCCCCOC(=O)CCN(CC)CCN(CC)CCC(=O)OCCCCCCCCCCCCCCC [LG61] | 0.4 | 0.5 | 0.4 | 0.4 | 0.4 | 0.5 |
| CCCCCCCCCCCCCCOC(=O)CCN(CCC(=O)OCCCCCCCCCCCCCC)CCc1ccc(OC)c(OC)c1 [LF17] | 0.1 | 0.1 | 0.1 | 0.1 | 0.1 | 0.1 |

Source: patent US9006487B2, “Amine-containing lipids and uses thereof” (Massachusetts Institute of Technology, priority 2005, dated 2015)
